Test results as given in paper PMC7251097, “Aspartate/asparagine-β-hydroxylase: a high-throughput mass spectrometric assay for discovery of small molecule inhibitors” (Scientific Reports, 2020).
Structures can show the parent of a compound that is named as a salt. Where two headings read alike, the source gives them in different places. Values belong to the compound of their own block, whether it stands above or below them. Residues, ends and D or L forms follow the SMILES beside them. *: point of attachment. Cbz = O=C(OCc1ccccc1)*

Target: T1, His6-AspH315–758 (human aspartate/asparagine-β-hydroxylase, AspH) (Homo sapiens, UniProt Q12797)
T1 construct: N-Terminally His6-tagged human AspH315–758 (His6-AspH315–758) was produced in E. coli BL21 (DE3) cells; made in house; host or cells: E. coli BL21 (DE3), pET-28a(+) vector
T1 sequence (Q12797 315-758): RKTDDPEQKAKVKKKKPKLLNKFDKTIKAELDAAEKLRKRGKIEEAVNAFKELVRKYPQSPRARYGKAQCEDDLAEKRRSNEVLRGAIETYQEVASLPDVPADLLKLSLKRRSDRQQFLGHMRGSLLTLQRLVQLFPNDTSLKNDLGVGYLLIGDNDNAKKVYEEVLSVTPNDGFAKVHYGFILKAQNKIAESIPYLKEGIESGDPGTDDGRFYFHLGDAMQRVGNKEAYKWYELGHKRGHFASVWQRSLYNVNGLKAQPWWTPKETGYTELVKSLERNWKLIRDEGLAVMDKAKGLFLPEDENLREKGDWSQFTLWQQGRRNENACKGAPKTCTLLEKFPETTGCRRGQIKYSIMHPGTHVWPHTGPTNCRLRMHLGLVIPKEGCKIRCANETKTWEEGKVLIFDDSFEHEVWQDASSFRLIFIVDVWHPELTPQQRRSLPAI
Assay: SPE-MS AspH inhibition assay (LOPAC screen at fixed 20 μM and IC50 dose-response), hydroxylation of cyclic peptide hFX-CP101–119
Assay type: biochemical

[1] = LOPAC Plate 4, compound at 20 uM, substrate conversion
[2] = plate 5 (Pfitzer), test compounds at fixed 20 μM
[3] = plate 5 (Pfitzer), test compounds at fixed 20 μM, mean conversion DMSO 32.88
[4] = LOPAC compound at 20uM, plate 2, normalised to DMSO and 2,4-PDCA controls
[5] = LOPAC compound at fixed 20 uM, plate 1, normalised to DMSO and 2,4-PDCA controls
[6] = LOPAC compound at fixed 20 uM, substrate conversion, plate 1
[7] = LOPAC compound at 20uM, plate 3, conversion of substrate peptide
[8] = LOPAC Plate 4, compound at 20 uM, read-out: % inhibition
[9] = LOPAC compound at 20uM, plate 2, conversion of substrate peptide
[10] = LOPAC compound at 20uM, plate 2, normalised to DMSO and 2,4-PDCA controls, read-out: Plate 2 (% inhibition)
[11] = AspH activity, fixed compound concentration 20 μM, initial LOPAC screen, 0.5%v/v DMSO, read-out: Inhibition at 20 µM [%]
[12] = LOPAC Plate 4, compound at 20 uM

Plate 5 (% inhibition) [2]: 84.86%
Plate 5 (% conversion) [3]: 7.43%
Compound: Cc1cc(CCC[C@H](CC(=O)NO)C(=O)N[C@H](C(=O)N[C@H](C)c2ccccc2)C(C)(C)C)ccc1-c1ccccc1 [UK-356618]

Plate 1 (% inhibition) [5]: -13.99%
Plate 1 (% conversion) [6]: 40.57%
Compound: Cl.Clc1ccc(Cn2c(CN3CCCC3)nc3ccccc32)cc1 [Clemizole hydrochloride]

Plate 3 (% conversion) [7]: 58.37%
Compound: CC(C)[C@H]1c2ccc(F)cc2CC[C@@]1(CCN(C)CCCc1nc2ccccc2[nH]1)OC(=O)C1CC1 [NNC 55-0396]

inhibition at 20 µM: -4.13%
Compound: COC(=O)[C@@H]1[C@H]2C[C@H]3c4[nH]c5ccccc5c4CCN3C[C@@H]2CC[C@@H]1O [Yohimbine hydrochloride]

Plate 3 (% conversion) [7]: 40.97%
Compound: CCN1/C(=C/C(C)=O)Sc2ccc(OC)cc21 [TG003]

% conversion [1]: 34.46%
inhibition at 20 µM [8]: 5.88%
Compound: CCN(CC)CCOC(=O)c1ccc(N)cc1 [Procaine hydrochloride]

% conversion [1]: 30.14%
Compound: C=C[C@H]1C[N@@]2CC[C@H]1C[C@H]2[C@H](O)c1ccnc2ccc(OC)cc12 [Quinine sulfate]

Plate 1 (% inhibition) [5]: -5.28%
Plate 1 (% conversion) [6]: 37.64%
Compound: Oc1ccc(-c2nc(-c3ccncc3)c(-c3ccc(F)cc3)[nH]2)cc1 [SB 202190]

Plate 1 (% inhibition) [5]: 8.35%
Plate 1 (% conversion) [6]: 33.07%
Compound: NC(=NCc1ccccc1)NC(=O)c1nc(Cl)c(N)nc1N [Benzamil hydrochloride]

Plate 1 (% inhibition) [5]: -9.17%
Plate 1 (% conversion) [6]: 38.95%
Plate 5 (% inhibition) [2]: -1.65%
Plate 5 (% conversion) [3]: 36.88%
Compound: C[C@@H](c1ncncc1F)[C@](O)(Cn1cncn1)c1ccc(F)cc1F [Voriconazole]

Plate 1 (% inhibition) [5]: 5.27%
Plate 1 (% conversion) [6]: 34.10%
Compound: COc1ccc2c(c1)c(CC(=O)O)c(C)n2Cc1ccc(Cl)cc1

% conversion [1]: 26.88%
Compound: Cc1nc2ccccn2c(=O)c1CCN1CCC(C(=O)c2ccc(F)cc2)CC1 [Pirenperone]

Plate 5 (% inhibition) [2]: -100.36%
Plate 5 (% conversion) [3]: 70.47%
Compound: Cc1[nH]c(/C=C2\C(=O)Nc3ccc(S(=O)(=O)Cc4c(Cl)cccc4Cl)cc32)c(C)c1C(=O)N1CCC[C@@H]1CN1CCCC1 [PHA-665752]

Plate 3 (% conversion) [7]: 33.83%
Compound: CC(C)[C@H](NC(=O)OCc1ccccc1)C(=O)N[C@H](C=O)Cc1ccccc1 [MDL 28170] (Cbz-Val-Phe-aldehyde)

Plate 3 (% conversion) [7]: 33.11%
Compound: Cc1cnc(NC(=O)C2=C(O)c3ccccc3S(=O)(=O)N2C)s1 [Meloxicam sodium]

Plate 2 (% conversion) [9]: 21.33%
inhibition at 20 µM [10]: 43.7%
Compound: O=c1c2ccccc2[nH]c(=S)n1CCN1CCC(=C(c2ccc(F)cc2)c2ccc(F)cc2)CC1 [Diacylglycerol Kinase Inhibitor II]

% inhibition [12]: -0.66%
% conversion [1]: 36.70%
Compound: C[C@H](c1ccc(F)cc1CCCC(=O)O)N(c1cc(F)ccc1F)S(=O)(=O)c1ccc(Cl)cc1 [BMS-299897]

% conversion [1]: 36.54%
Plate 5 (% inhibition) [2]: -5.94%
Plate 5 (% conversion) [3]: 38.34%
Compound: COc1cc(OC)cc(-c2cc3cnc(N)nc3nc2NC(=O)NC(C)(C)C)c1 [PD-166866]

Plate 1 (% inhibition) [5]: 64.70%
Plate 1 (% conversion) [6]: 14.14%
Compound: NC(=O)c1cc[n+](CC2=C(C(=O)[O-])N3C(=O)[C@@H](NC(=O)C(c4ccccc4)S(=O)(=O)[O-])[C@H]3SC2)cc1.O.[Na+] (some centres unmarked) [Cefsulodin sodium salt hydrate]

% conversion [1]: 19.47%
Compound: O=C(c1ccc(F)cc1)C1CCN(CCn2c(=O)[nH]c3ccccc3c2=O)CC1 [Ketanserin tartrate]

Further lines, the compound ahead of its results:

Compound: CCOc1ncc(S(=O)(=O)N2CCN(CC)CC2)cc1-c1nc2c(CC)n(CCOC)nc2c(=O)[nH]1.O=S(=O)(O)c1ccccc1 [Gisadenafil besylate salt]
Plate 1 (% conversion): 43.96%
Plate 1 (% inhibition): -24.07%

Compound: N[C@H](C(=O)O)[C@H](Cc1ccccc1)C(=O)O [L-Beta-threo-benzyl-aspartate]
% conversion [1]: 30.62%

Compound: Cl.c1ccc([C@H]2CN3CCSC3=N2)cc1 [(-)-Tetramisole hydrochloride]
Plate 3 (% conversion): 32.10%

Compound: CNCCc1ccc(O)c(O)c1.Cl [N-Methyldopamine hydrochloride]
Plate 2 (% conversion): 9.52%
Plate 2 (% inhibition) [4]: 78.96%

Compound: COC(=O)Nc1nc2ccc(C(=O)c3cccs3)cc2[nH]1 [Nocodazole]
Plate 3 (% conversion): 40.67%

Compound: Cn1cnc([N+](=O)[O-])c1Sc1ncnc2nc[nH]c12 [Azathioprine]
Plate 1 (% inhibition) [5]: -17.98%
Plate 1 (% conversion) [6]: 41.91%

Compound: C[C@@H]1C(=O)NC2=Nc3cccc(Cl)c3CN21 [Quazinone]
% conversion [1]: 40.20%
inhibition at 20 µM [8]: -10.9%

Compound: CCN(CC)CCNC(=O)c1c(C)[nH]c(/C=C2\C(=O)Nc3ccc(F)cc32)c1C [Sunitinib malate]
Plate 2 (% conversion) [9]: 11.67%
inhibition at 20 µM [10]: 72.5%

Compound: CSc1nc(N)c2ncn([C@@H]3O[C@H](COP(=O)([O-])OP(=O)([O-])[O-])[C@@H](O)[C@H]3O)c2n1.O.[Na+].[Na+].[Na+]
Plate 1 (% inhibition) [5]: 16.28%
Plate 1 (% conversion) [6]: 30.40%

Compound: O=c1c(O)c(-c2cc(O)c(O)c(O)c2)oc2cc(O)cc(O)c12 [Myricetin, reference compound]
Plate 3 (% conversion): 2.65%
inhibition at 20 µM [11]: 99.4%

Compound: Nc1nnc(-c2cccc(Cl)c2Cl)c(N)n1 [Lamotrigine]
Plate 3 (% conversion) [7]: 33.75%

Compound: Cl.NCCNS(=O)(=O)c1cccc2c(Cl)cccc12 [A3 hydrochloride]
% conversion: 25.50%

Compound: N.N.[Cl][Pt][Cl] [Cisplatin]
Plate 3 (% conversion) [7]: 31.15%

Compound: C[C@](N)(CCP(=O)(O)O)C(=O)O.Cl [(S)-MAP4 hydrochloride]
Plate 3 (% conversion) [7]: 32.97%

Compound: NCCCCCC(=O)O [6-Aminohexanoic acid]
Plate 1 (% inhibition) [5]: -0.76%
Plate 1 (% conversion) [6]: 36.13%

Compound: Cl.O=C(CCCCCN1CCN(c2ccccc2-c2ccccc2)CC1)NC1CCCc2ccccc21 (centres unmarked) [LP 12 hydrochloride hydrate]
% inhibition [12]: -43.43%
% conversion [1]: 51.29%

Compound: N[C@@H]1C[C@H]1c1ccccc1 [Tranylcypromine hydrochloride]
% conversion: 34.80%

Compound: CN(C)C(N)=NCCC[C@H](N)C(=O)O.Cl [N^G,N^G-Dimethylarginine hydrochloride]
Plate 2 (% conversion) [9]: 37.98%
Plate 2 (% inhibition) [4]: -6.05%

Compound: Br.CN1CCc2cc(O)cc3c2[C@H]1Cc1ccc(O)c(O)c1-3
Plate 2 (% conversion) [9]: 6.73%
Plate 2 (% inhibition) [4]: 87.29%

Compound: O=[N+]([O-])c1cccc2c(Br)n[nH]c12 [3-Bromo-7-nitroindazole]
Plate 1 (% inhibition) [5]: 1.81%
Plate 1 (% conversion) [6]: 35.26%

Compound: Cl.NOCC(=O)O.NOCC(=O)O
Plate 1 (% inhibition) [5]: -6.07%
Plate 1 (% conversion) [6]: 37.91%

Compound: CN1C(=O)CCS(=O)(=O)C1c1ccc(Cl)cc1 (centres unmarked) [Chlormezanone]
Plate 2 (% conversion): 39.39%
inhibition at 20 µM (read-out: Plate 2 (% inhibition)): -10.3%

Compound: CC(C)(NS(=O)(=O)c1ccc(Oc2ccc(F)cc2)cc1)C(=O)NO [CP-471474]
Plate 5 (% conversion): 38.13%
Plate 5 (% inhibition): -5.33%

Compound: 10058-F4
Plate 1 (% conversion): 30.76%
Plate 1 (% inhibition): 15.22%

Compound: CCCc1nn(C)c2c(=O)[nH]c(-c3cc(S(=O)(=O)N4CCN(C)CC4)ccc3OCC)nc12 [sildenafil, reference compound]
Plate 5 (% conversion): 6.67%
IC50 (50 nM His6-AspH315–758, 1.0 μM hFX-CP101–119, 3 μM 2OG, 2 μM Fe(II), 50 mM HEPES pH 7.5, 20 °C, mean ± SD, n = 2 (2,4-PDCA n = 10), read-out: IC50): 2450 ± 360 nM
inhibition at 20 µM [11]: 97.8%
Plate 5 (% inhibition) [2]: 87.11%

Compound: Oc1cc(-c2ccccc2)nc2nc(Cl)ccc12
Plate 1 (% conversion): 39.07%
Plate 1 (% inhibition): -9.52%

Compound: N[C@@H](Cn1oc(=O)[nH]c1=O)C(=O)O [(+)-Quisqualic acid]
% conversion: 34.23%

Compound: Cl.OCc1c[nH]cn1 [4-Imidazolemethanol hydrochloride]
Plate 2 (% conversion): 36.75%
Plate 2 (% inhibition) (20 µM): -2.37%

Compound: CC(=O)O[C@]1(C(C)=O)CC[C@H]2[C@@H]3C=C(Cl)C4=CC(=O)[C@@H]5C[C@@H]5[C@]4(C)[C@H]3CC[C@@]21C [Cyproterone acetate]
Plate 1 (% inhibition) [5]: -9.70%
Plate 1 (% conversion) [6]: 39.13%

Compound: CCCN(CCC)C1Cc2cc(OC)c(OC)cc2C1.O=C(O)/C=C\C(=O)O [U-99194A maleate]
% inhibition [12]: 4.59%
% conversion [1]: 34.90%

Compound: NC[C@H](O)c1ccc(O)c(O)c1.O=C(O)C(O)C(O)C(=O)O (racemic) [(±)-Norepinephrine (+)bitartrate]
Plate 1 (% inhibition) [5]: 92.57%
Plate 1 (% conversion) [6]: 4.78%

Compound: CCCCS(=N)(=O)CC[C@H](N)C(=O)O (stereo partly drawn) [L-Buthionine-sulfoximine]
Plate 1 (% inhibition) [5]: 3.50%
Plate 1 (% conversion) [6]: 34.70%
